Assay results: the OligoGym collection
After the bases stand the sugars from the 5' end (letter, count) and the backbone: PS all phosphorothioate, else s phosphorothioate and o phosphodiester by linkage. Methylation of C is not given here. e = 2'-O-(2-methoxyethyl) (MOE); k = constrained ethyl (cEt); d = 2'-deoxy (DNA); m = 2'-O-methyl

How the values were obtained:
IRF4 = details: ASO
HSD17B13 = details: ASO, HepaRG

| Sequence | target mRNA inhibition (HSD17B13; 1 µM) [%] | also measured |
| --- | --- | --- |
| AAAAAAGGTGCAAGCC (sugars k3 d10 k3, PS) |  | target mRNA inhibition (IRF4; SK-MEL-28, 4 µM): 7% |
| AAAAACTTGGGTCACT (sugars k3 d10 k3, PS) |  | target mRNA inhibition (IRF4; SK-MEL-28, 4 µM): -19% |
| AAAAAGGTGCAAGCCT (sugars k3 d10 k3, PS) |  | target mRNA inhibition (IRF4; MM.1R, 1 µM): 6% |
| AAAAATGTCCCATCCA (sugars k3 d10 k3, PS) |  | target mRNA inhibition (IRF4; SK-MEL-28, 4 µM): 30% |
| AAAACAGTAAGAGGGC (sugars k3 d10 k3, PS) |  | target mRNA inhibition (IRF4; SK-MEL-28, 4 µM): 39% |
| AAAAGAGCCGCCACAT (sugars k3 d10 k3, PS) |  | target mRNA inhibition (IRF4; SK-MEL-28, 4 µM): 16% |
| TGTAATAGCCAGTACA (sugars k3 d1 m1 d8 k3, PS) | 40 |  |
| TGTAATAGCCAGTACA (sugars k3 d10 k3, PS) | 46 |  |
| TGTACAGTAGGCAGTT (sugars k3 d10 k3, PS) | 75 |  |
| TGTATCTTATAAGACT (sugars k3 d10 k3, PS) | 45 |  |
| TGTATTTCGCTACTGT (sugars k3 d10 k3, PS) | 76 | target mRNA inhibition (HSD17B13; 0.02 µM): 12%; target mRNA inhibition (HSD17B13; 0.078 µM): 18%; target mRNA inhibition (HSD17B13; 0.313 µM): 46%; target mRNA inhibition (HSD17B13; 1.25 µM): 80%; target mRNA inhibition (HSD17B13; 5 µM): 90% |
| TGTCAGACCTCTGTGA (sugars k3 d10 k3, PS) | 0 |  |
| TGTCATAAAGGTGGGA (sugars k3 d10 k3, PS) | 48 |  |
| TGTCCACCTTTAAATG (sugars k3 d10 k3, PS) | 29 |  |
| TGTCCCAGCATTATTC (sugars k3 d10 k3, PS) | 31 |  |
| TGTCCTAGGATGTTGA (sugars k3 d10 k3, PS) | 41 |  |
| TGTGAAGAGCTGGTAA (sugars k3 d10 k3, PS) | 41 |  |
| TGTGACGATGTGGCCA (sugars k3 d10 k3, PS) | 42 |  |
| TGTGAGAGGATAGTGA (sugars k3 d10 k3, PS) | 50 |  |
| TGTGCACTCATTCTGT (sugars k3 d10 k3, PS) | 18 |  |
| TGTGGCATGGCTACAG (sugars k3 d1 m1 d8 k3, PS) | 5 |  |
| TGTGGCATGGCTACAG (sugars kkdddddddddkekek, PS) | 22 |  |
| TGTGTTAGCTTTAATT (sugars k3 d10 k3, PS) | 38 |  |
| TGTGTTCTTGTTGATA (sugars kkdddddddddkekek, PS) | 64 |  |
| TGTTAAGCAGATGGCT (sugars k3 d10 k3, PS) | 39 |  |
| TGTTAGCTAAGGGAGA (sugars k3 d10 k3, PS) | 0 |  |

| Sequence | target mRNA inhibition (HSD17B13; 1 µM) [%] | also measured |
| --- | --- | --- |
| TGTTGATATTCTGTGG (sugars k3 d1 m1 d8 k3, PS) | 48 |  |
| TGTTGATATTCTGTGG (sugars k3 d9 k3 e1, PS) | 64 |  |
| TTAAAATAGAGTCGGT (sugars k3 d1 m1 d8 k3, PS) | 70 |  |
| TTAAAATAGAGTCGGT (sugars k3 d10 k3, PS) | 65 |  |
| TTAAAATAGAGTCGGT (sugars kkdddddddddkekek, PS) | 51 |  |
| TTAAACCTTCCCTGTG (sugars k3 d1 m1 d8 k3, PS) | 23 |  |
| TTAAACCTTCCCTGTG (sugars k3 d10 k3, PS) | 22 |  |
| TTAAATCAGGCAGTCA (sugars k3 d10 k3, PS) | 45 |  |
| TTAAGATACCCAGGTT (sugars k3 d10 k3, PS) | 37 |  |
| TTAAGCAGATGGCTTA (sugars k3 d10 k3, PS) | 0 |  |
| TTAAGTACTGTGAGAC (sugars k3 d10 k3, PS) | 35 |  |
| TTAATGCCACCCTACC (sugars k3 d10 k3, PS) | 19 |  |
| TTACAGCCTTAGAGTG (sugars k3 d10 k3, PS) | 21 |  |
| TTACATCACCCACTTC (sugars k3 d10 k3, PS) | 37 |  |
| TTACGACTTCATCTGT (sugars k3 d10 k3, PS) | 36 |  |
| TTAGCAAGCTAAGAGA (sugars k3 d10 k3, PS) | 42 |  |
| TTAGCTGTGCACTCAT (sugars k3 d10 k3, PS) | 61 |  |
| TTAGGAAAGCTCATGG (sugars k3 d10 k3, PS) | 26 |  |
| TTAGTATAGTTATCTT (sugars kkdddddddddkekek, PS) | 33 |  |
| TTAGTCTTGATGTAGT (sugars k3 d9 k3 e1, PS) | 61 |  |
| TTAGTCTTGATGTAGT (sugars kkdddddddddkekek, PS) | 36 |  |
| TTAGTTAGAATAGTCT (sugars kkdddddddddkekek, PS) | 53 |  |
| TTAGTTGGTAGCTTGC (sugars k3 d10 k3, PS) | 72 |  |
| TTAGUATAGTTATCTT (sugars k3 d1 m1 d8 k3, PS) | 22 |  |
| TTAGUCTTGATGTAGT (sugars k3 d1 m1 d8 k3, PS) | 50 |  |
| TTATAACTACAAGAGG (sugars k3 d10 k3, PS) | 68 | target mRNA inhibition (HSD17B13; 0.02 µM): 1%; target mRNA inhibition (HSD17B13; 0.078 µM): 25%; target mRNA inhibition (HSD17B13; 0.313 µM): 26%; target mRNA inhibition (HSD17B13; 1.25 µM): 60%; target mRNA inhibition (HSD17B13; 5 µM): 82% |

| Sequence | target mRNA inhibition (HSD17B13; 1 µM) [%] | also measured |
| --- | --- | --- |
| TTATACTGAAGGCTGT (sugars k3 d10 k3, PS) | 23 |  |
| TTATGTAATAGCCAGT (sugars k3 d10 k3, PS) | 77 | target mRNA inhibition (HSD17B13; 0.02 µM): 16%; target mRNA inhibition (HSD17B13; 0.078 µM): 21%; target mRNA inhibition (HSD17B13; 0.313 µM): 59%; target mRNA inhibition (HSD17B13; 1.25 µM): 78%; target mRNA inhibition (HSD17B13; 5 µM): 89% |
| TTATGTGATTGAGTTC (sugars k3 d9 k3 e1, PS) | 30 |  |
| TTATTATGTGATTGAG (sugars k3 d10 k3, PS) | 23 |  |
| TTATTGGTATGGTAAG (sugars k3 d10 k3, PS) | 14 |  |
| TTCACCTGATTTAGAG (sugars k3 d10 k3, PS) | 9 |  |
| TTCAGAGTTATACAGA (sugars k3 d10 k3, PS) | 66 |  |
| TTCCATAAAGCTGGAT (sugars k3 d10 k3, PS) | 5 |  |
| TTCCGAAAAAAGTGGA (sugars k3 d10 k3, PS) | 13 |  |
| TTCCGGTAAGAATTTC (sugars k3 d10 k3, PS) | 33 |  |
| TTCGAATCATTAAGCT (sugars k3 d10 k3, PS) | 63 |  |
| TTCTAAATTACTCCGT (sugars k3 d10 k3, PS) | 53 |  |
| TTCTACACCACACTAA (sugars k3 d10 k3, PS) | 12 |  |
| TTCTAGGATGATGTTC (sugars k3 d10 k3, PS) | 72 |  |
| TTCTATCAACCTGCAC (sugars k3 d10 k3, PS) | 62 |  |
| TTCTATTGTATGAGGT (sugars k3 d10 k3, PS) | 0 |  |
| TTCTCTTGACAATGGT (sugars k3 d10 k3, PS) | 67 |  |
| TTCTTGCAGAAATTCA (sugars k3 d10 k3, PS) | 42 |  |
| TTGAACAGTCTTAAAC (sugars k3 d9 k3 e1, PS) | 35 |  |
| TTGAAGACAATACAGG (sugars k3 d10 k3, PS) | 63 |  |
| TTGAATAGCAAGCCAA (sugars k3 d10 k3, PS) | 31 |  |
| TTGACTGCTGCTAGTG (sugars kkdddddddddkekek, PS) | 29 |  |
| TTGATAAAATAGGGTG (sugars k3 d10 k3, PS) | 46 |  |
| TTGCACCGTTTTGGGC (sugars k3 d1 m1 d8 k3, PS) | 50 |  |
| TTGCACCGTTTTGGGC (sugars kkdddddddddkekek, PS) | 26 |  |
| TTGCAGTTATTAGAAG (sugars k3 d1 m1 d8 k3, PS) | 17 |  |

| Sequence | target mRNA inhibition (HSD17B13; 1 µM) [%] | also measured |
| --- | --- | --- |
| TTGCATAAGAGCCAAA (sugars k3 d10 k3, PS) | 46 |  |
| TTGGAATGCTACTTGA (sugars k3 d1 m1 d8 k3, PS) | 65 |  |
| TTGGCCGAGGAGGGCG (sugars k3 d10 k3, PS) | 3 |  |
| TTGGGACCAATATAAT (sugars k3 d10 k3, PS) | 18 |  |
| TTGGGTCCATTGTTTC (sugars k3 d10 k3, PS) | 44 |  |
| TTGGTATGGTAAGCCC (sugars k3 d10 k3, PS) | 62 |  |
| TTGGUAAGTATTCCAT (sugars k3 d1 m1 d8 k3, PS) | 13 |  |
| TTGTTAGAGTGCTTAG (sugars k3 d10 k3, PS) | 76 |  |
| TTGTTGATATTCTGTG (sugars k3 d10 k3, PS) | 52 |  |
| TTTAAGAGGCATGAAA (sugars k3 d10 k3, PS) | 40 |  |
| TTTAGGGAGGTAGCTT (sugars k3 d10 k3, PS) | 24 |  |
| TTTATAGACTGGGTAG (sugars k3 d10 k3, PS) | 59 |  |
| TTTATTATGAGGATCT (sugars k3 d10 k3, PS) | 43 |  |
| TTTATTGGTATGGTAA (sugars k3 d10 k3, PS) | 25 |  |
| TTTCACCTCAGGTGAC (sugars k3 d10 k3, PS) | 52 |  |
| TTTCATGGCCTTACCA (sugars k3 d10 k3, PS) | 52 |  |
| TTTCCTCCACACCGCG (sugars k3 d10 k3, PS) | 18 |  |
| TTTCGAATCATTAAGC (sugars k3 d10 k3, PS) | 30 |  |
| TTTCGGCACTCAGCTG (sugars k3 d10 k3, PS) | 29 |  |
| TTTCTAAATTACTCCG (sugars k3 d10 k3, PS) | 54 |  |
| TTTGAGAGAACTTATA (sugars k3 d10 k3, PS) | 0 |  |
| TTTGCAGCATTGATTC (sugars k3 d10 k3, PS) | 53 |  |
| TTTGGTGGACTTCAGA (sugars k3 d10 k3, PS) | 16 |  |
| TTTGTTAGAGTGCTTA (sugars k3 d10 k3, PS) | 80 | target mRNA inhibition (HSD17B13; 0.02 µM): 12%; target mRNA inhibition (HSD17B13; 0.078 µM): 30%; target mRNA inhibition (HSD17B13; 0.313 µM): 56%; target mRNA inhibition (HSD17B13; 1.25 µM): 86%; target mRNA inhibition (HSD17B13; 5 µM): 89% |
